The values below come from US8703183B2 (priority 2008, dated 2014).

One data set has as its system Sprague Dawley rats. The class given is in vivo. The conditions noted are these: for Time of lowest level of glucose in blood after administration: both sexes; for Time of lowest level of glucose in blood after administration / Blood glucose level compared to females from the control group: single oral administration; for Mortality in females: single oral dose 1500 mg/kg, female Sprague Dawley rats; for Mortality in males: single oral dose (metformin salts 1500 mg/kg, Glycine 871.6 mg/kg), male Sprague Dawley rats; for Glucose reducing effect: single oral dose, Glycine 871.6 mg/Kg, metformin glycinate 1500 mg/kg. How it is done:
. The following 14 days to administration, toxic effects were evaluated. […]; The cause to deaths was to a pronounced and fast drop in glycemia levels.

The subject of data set [1] is Kidney origin cells: CRL 1633. The conditions noted are these: 250 mg/ml to 0.12 mg/ml, 24 and 72 hours exposure.
Data set [2] has as its system Primary cultures: hepatocytes. The conditions noted are these: 250 mg/ml to 0.12 mg/ml, 24 and 72 hours exposure.
The test system of data set [3] is Wistar rats. The conditions noted are these: both, rat, in vivo, 28 days.
Excerpt: (§1) Number of animals: 50 Wistar rats, young adults 3 months of age, of both sexes, were used. Five batches with ten animals each. Four experimental groups (10 animals in each group) and a control group.
(§2) After fasting, different doses (low, medium, high, and satellite and control groups) of the product were orally administered using an orogastric tube.
(§3) • Low: 0.1 g/kg • Medium: 0.5 g/kg • High: 1.0 g/kg • Satellite 1.0 g/kg • Control: Only the carrier (Bidistilled water)
The subject of data set [4] is Wistar rats. Briefly: Subacute toxicity study at 28 days (OECD Guideline 407). The conditions noted are these: 0.1, 0.5, 1.0 g/kg oral.
Excerpt: as §1, §2, §3
Data set [5] has as its system Hepatic origin cells: CCL13. The conditions noted are these: 250 mg/ml to 0.12 mg/ml, 24 and 72 hours exposure.

Each structure is given as a SMILES string.

Consider `CN(C)C(=N)NC(=N)N.Cl` [Metformin hydrochloride, reference compound], for which, in the data set on Sprague Dawley rats, the “Time of lowest level of glucose in blood after administration” value is on record as “three”; the “Blood glucose level compared to females from the control group” value was “statistically lower blood glucose level 3 and 6 hours after”; the Mortality in females came out at 10%; the Mortality in males entry is given as “did not show mortality”.
On to `NCC(=O)O` [Glycine, reference compound], for which, in the data set with Sprague Dawley rats, the Mortality in males result is given as “did not show mortality” and the Glucose reducing effect result is “did not show a marked glucose reducing affect”.
As to `CN(C)C(=N)NC(=N)N` [Metformin glycinate, N,N-dimethylimidodicarbonimidic diamide glycinate], in the data set with Sprague Dawley rats, the “Time of lowest level of glucose in blood after administration” value is reported as “three”; the “Blood glucose level compared to females from the control group” value is “statistically significant lower blood glucose level 15 min, 30 min and also 3 and 6 hours after”; the Mortality in females was 30%; the Mortality in males result is on record as “did not show mortality”. For the same molecule, the Glucose reducing effect entry in the data set with Sprague Dawley rats is given as “more pronounced reduction of glucose levels”. Moreover, the “Lactate level in plasma” value in the data set with Sprague Dawley rats (day of oral administration, 1500 mg/kg) was “increase of lactate level in plasma”. For the same molecule, in data set [1], the Cytotoxicity result is listed as “not cytotoxic”. In addition, the Cytotoxicity result in data set [2] is “not cytotoxic”. For the same molecule, in the data set with Wistar rats [3], the “Reversal of semi-pasty faeces during the course of the study” value is 9th-11th. Besides, the “Probable dose for the non-observable adverse effect (extrapolation)” value in the data set with Wistar rats [3] (po) is 500 to 1000 mg/kg. The “Mortality during the 28-day study” value with Wistar rats [4] is given as “No mortality”. In addition, the Cytotoxicity entry in data set [5] is on record as “not cytotoxic”.
